In patent US5750354A, “Lipoxin transport system and uses therefor” (priority 1994, dated 1998):
Entries after “also recorded” stand apart in the source; their conditions may differ.

Columns and labels:
human neutrophils [1] = assay: [3H]LXA4 methyl ester influx into human neutrophils; format: cell-based
Procedure: Incubations were performed at 37° C. in capped, plastic tubes (Falcon Plastics, Oxnard, Calif.) under various experimental conditions (neutrophils 15-20×10^6 /ml). […] At stated intervals, duplicate aliquots of the cell suspensions were layered onto 0.5 ml of silicone oil (Versilube F-5, General Electric Corp., Waterford, N.Y.) contained in 1.5 ml plastic tubes and centrifuged for 1 min at 8,000 g in a microcentrifuge (Beckman Instruments, Fullerton, Calif.).
The aqueous and oil phases were aspirated and discarded. […] Influx is expressed here as fmol/10^6 cells/min whereas flux rates in all previous work from our laboratory (L.S.) have been reported in meq/liter of cell water.min.
(§1) Influx rates were calculated by fitting the data points to a single exponential equation (Eq. 1). Results have been taken from three experiments based upon duplicate determinations. […] Specific binding was taken as the difference between total and non-specific binding. […] Results are from three separate experiments, each performed in triplicate.

lipoxin transport system = assay: [3H]LXA4 influx into human neutrophils (unidirectional tracer flux); conditions: for final [3H]LXA4 uptake (combined data) / initial [3H]LXA4 influx rate (combined data): combined data: Control, 0.4 mM SITS, 1 mM probenecid, Na+-free medium, high K+ medium; for effect on [3H]LXA4 influx: probenecid 1 mM, SITS 0.4 mM
human neutrophils [2] = conditions: 500 µM
[3] = system: unstimulated human lymphocytes; assay: [3H]LXA4 uptake into lymphocytes; format: cell-based; conditions: 0.5 mM DISA, 5 nM LXA4
Procedure: Lymphocvtes: The lymphocyte-rich interface layer was taken at the Ficoll-Hypaque gradient step of the neutrophil purification procedure. Platelets were removed by slow-speed centrifugation (see below) and contaminating monocytes and neutrophils by adherence to plastic Petri dishes for 1 hour at 37 ° C.
(§2) Human red cells, lymphocytes, and platelets were isolated from peripheral blood as described under Methods. Undifferentiated HL-60 cells were grown in culture according to standard protocols. Differentiated HL-60 cells were obtained by exposing cells to 1 μM retinoic acid for 5 days in culture. After harvesting and isolation, all cells were kept in the standard medium for 1 hour at 37° C. prior to assay. […] Results represent the means±SEM of three-four separate experiments for each cell type.

[4] = molecular target: T1, specific lipoxin receptors (Homo sapiens, UniProt P25090); assay: [3H]LXA4 ligand binding to human neutrophils
T1 sequence (P25090 1-351): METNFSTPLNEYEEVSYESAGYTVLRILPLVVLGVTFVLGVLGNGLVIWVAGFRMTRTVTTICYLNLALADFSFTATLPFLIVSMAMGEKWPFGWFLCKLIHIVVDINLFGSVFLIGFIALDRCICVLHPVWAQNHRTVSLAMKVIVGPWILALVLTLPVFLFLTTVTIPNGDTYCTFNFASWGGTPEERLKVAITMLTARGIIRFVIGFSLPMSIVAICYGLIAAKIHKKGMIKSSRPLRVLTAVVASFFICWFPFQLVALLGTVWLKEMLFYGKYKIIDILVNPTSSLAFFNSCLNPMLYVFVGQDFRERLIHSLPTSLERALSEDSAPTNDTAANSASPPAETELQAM
Procedure: as §1

[5] = system: unstimulated human erythrocytes; assay: [3H]LXA4 uptake into erythrocytes; format: cell-based; conditions: 0.5 mM DISA, 5 nM LXA4
Procedure: Red Blood Cells (RBC): RBC were obtained directly from the heparinized blood of normal human donors. During repeated (four) washing steps, the uppermost portion of the cell pellets was aspirated and discarded to remove residual minor contamination of buffy coat cells.
as §2

[6] = system: unstimulated human platelets; assay: [3H]LXA4 uptake into platelets; format: cell-based; conditions: 0.5 mM DISA, 5 nM LXA4
Procedure: Platelets: Platelets were purified to homogeneity from acid citrate dextrose-treated blood according to established protocols (Romano, M. and Serhan, C. N. (1992) Biochemistry 31:8269-8277).
as §2

[7] = system: undifferentiated HL-60 cells; assay: [3H]LXA4 uptake into undifferentiated HL-60 cells; format: cell-based, human; conditions: 0.5 mM DISA, 5 nM LXA4
Procedure: (§3) HL-60 Cells: HL-60 cells were seeded into RPMI medium supplemented with 100 U/ml penicillin, 100 μg/ml streptomycin, and 10% fetal calf serum (Hyclone, Logan, Utah) and grown at 37° C. in 250 ml flasks in a 5% CO2 /95% air atmosphere. Cells were induced to differentiate toward a neutrophil-like phenotype by exposure to 1 μM retinoic acid for 5 days.
as §2

[8] = system: retinoic acid-induced HL-60 cells; assay: [3H]LXA4 uptake into retinoic acid-induced HL-60 cells; format: cell-based, human; conditions: 0.5 mM DISA, 5 nM LXA4
Procedure: as §3, §2

sulfate carrier = conditions: cited from earlier work

## O=C(O)c1cc(I)cc(I)c1O [DISA, 3,5-diiodo-salicylic acid]
Human neutrophils [1]; 0.5 mM drug
  [3H]LXA4 ME Influx in presence of drug: 481 ± 170 fmol/10^6 cells/min
Human neutrophils [1]; DISA 0.5 mM, PCP 0.4 mM, mersalyl 0.5 mM
  effect of drugs on [3H]LXA4 ME influx: completely resistant
Lipoxin transport system; 100 nM FMLP + DISA
  inhibition of FMLP-enhanced [3H]LXA4 uptake: completely sensitive to inhibition
Lipoxin transport system; 100 nM PMA + DISA
  inhibition of PMA-induced enhancement of [3H]LXA4 influx: competely sensitive to inhibition
Lipoxin transport system; 0.5 mM DISA
  [3H]LXA4 uptake by 1 min of incubation: 2.9 fmol/10^6 cells
  effect on transport system-mediated component of uptake: completely blocks; also recorded: markedly sensitive; also recorded: blocked
Lipoxin transport system; 0.5 mM DISA, 5 nM LXA4, not distinguishable from zero
  slope of straight-line fit of [3H]LXA4 uptake in presence of drug: 0.0046±0.0051 fmol/10^6 cells/min
Lipoxin transport system; 0.5 mM DISA, 1-30 min
  cell-associated [3H]LXA4, average of all data points: 2.88 fmol/10^6 cells
Lipoxin transport system; 0.5 mM drug
  inhibition of [3H]LXA4 influx: > 80%
Lipoxin transport system; each at 0.2-0.5 mM
  effect on uptake of [3H]LXA4: inhibited the uptake
Lipoxin transport system; read-out: K0.5, concentration at which 50% of lipoxin transport is inhibited, drug 0-500 μM, uptake at 10 and 20 min, Michaelis-Menten inhibition kinetics
  IC50: 12 ± 2 µM
Human neutrophils [2]
  efflux final value (relative cell content, combined data set): 0.46±0.02
  efflux rate coefficient (combined data set): 0.098 ± 0.008 min⁻¹
[3]
  [3H]LXA4 Uptake Rate in the presence of DISA: 0.0053 ± 0.0036 fmol/10^6 cells/min
[4]
  effect on binding of lipoxin to specific receptors: not inhibitable
[4]; 0.5 mM drug, + unlabeled LXA4 0.3 μM
  [3H]LXA4 Binding, non-specific, in presence of drug: 0.41 ± 0.05 fmol/10^6 cells
[4]; 0.5 mM drug, no unlabeled LXA4
  [3H]LXA4 Binding, total, in presence of drug: 1.23 ± 0.08 fmol/10^6 cells
[5]
  [3H]LXA4 Uptake Rate in the presence of DISA: 0.0019 ± 0.0008 fmol/10^6 cells/min
[6]
  [3H]LXA4 Uptake Rate in the presence of DISA: -0.0005 ± 0.0015 fmol/10^6 cells/min
[7]
  [3H]LXA4 Uptake Rate in the presence of DISA: 0.12 ± 0.02 fmol/10^6 cells/min
[8]
  [3H]LXA4 Uptake Rate in the presence of DISA: 0.08 ± 0.02 fmol/10^6 cells/min

## CCCN(CCC)S(=O)(=O)c1ccc(C(=O)O)cc1 [probenecid]
Lipoxin transport system; 5 nM LXA4
  final [3H]LXA4 uptake (combined data): 7.26±0.26 fmol/10^6 cells
  initial [3H]LXA4 influx rate (combined data): 0.57±0.09 fmol/10^6 cells/min
Lipoxin transport system
  effect on [3H]LXA4 influx: no apparent impact; also recorded: not inhibited
Sulfate carrier
  sensitivity of the sulfate carrier: very sensitive

## CC(=O)Nc1ccc(C=Cc2ccc(N=C=S)cc2S(=O)(=O)O)c(S(=O)(=O)O)c1 [SITS, 4-acetamido-4'-isothiocyanostilbene-2,2'-disulfonic acid]
Lipoxin transport system; 5 nM LXA4
  final [3H]LXA4 uptake (combined data): 7.26±0.26 fmol/10^6 cells
  initial [3H]LXA4 influx rate (combined data): 0.57±0.09 fmol/10^6 cells/min
Lipoxin transport system
  effect on [3H]LXA4 influx: no apparent impact; also recorded: not inhibited
Sulfate carrier
  sensitivity of the sulfate carrier: very sensitive
